Measurements published in US10253041B2, “7-phenylethylamino-4H-pyrimido[4,5-d][1,3]oxazin-2-one compounds and their use as mutant IDH1 inhibitors” (Eli Lilly and Company, priority 2015, dated 2019).
Structures can show the parent of a compound that is named as a salt. Where two headings read alike, the source gives them in different places.

Key:
IDH1/R132C = biological target: T1, IDH1/R132C (Homo sapiens, UniProt O75874, R132C); assay: Biochemical assay for IDH1 R132C mutant enzyme (2HG by RapidFire MS); conditions: mean ± standard deviation of the mean; 90 minutes reaction
T1 construct: His-tag (N); made in house; host or cells: E. coli
T1 sequence (O75874 whole entry R132C): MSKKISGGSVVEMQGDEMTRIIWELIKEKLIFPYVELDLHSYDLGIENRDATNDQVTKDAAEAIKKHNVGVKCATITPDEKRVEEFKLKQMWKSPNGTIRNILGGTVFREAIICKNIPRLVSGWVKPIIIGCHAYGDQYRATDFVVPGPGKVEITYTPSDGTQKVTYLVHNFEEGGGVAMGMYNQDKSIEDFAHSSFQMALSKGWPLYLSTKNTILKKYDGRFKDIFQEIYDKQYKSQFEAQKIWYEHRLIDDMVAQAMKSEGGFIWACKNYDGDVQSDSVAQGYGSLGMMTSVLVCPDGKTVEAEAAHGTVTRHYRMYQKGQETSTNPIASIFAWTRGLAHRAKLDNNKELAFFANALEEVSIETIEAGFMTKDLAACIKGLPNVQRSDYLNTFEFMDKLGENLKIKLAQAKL
Description: (§1) IDH1-R132H, IDH1-R132C, IDH2-R172K and IDH2-R140Q mutant enzymes catalyze the conversion of αKG to 2HG. 2HG is analyzed using in-line solid phase extraction and mass spectrometry. This analysis is carried out in a RapidFire® instrument coupled to a 6460 triple quadrupole mass spectrometer (G6460A Agilent).
(§2) IDH1 mutant (R132H and R132C) and IDH2 mutant (R140Q and R172K) proteins containing N-terminal His-tag are expressed in E. coli and purified using nickel affinity chromatography. The enzyme assays are carried out in V-bottom 96 well polypropylene plates containing 100 mM Tris-HCl buffer, 1 mM DTT, 0.005% TRITON™ X-100, 120 mM NaCl. For IDH1 R132H, α-ketoglutarate, NADPH and MnCl2 are included at final concentrations of 300 μM, 2.5 μM and 300 μM respectively. For IDH1 R132C, α-ketoglutarate, NADPH and MnCl2 are included at final concentrations of 100 μM, 10 μM and 100 μM respectively. For IDH2 R172K, α-ketoglutarate, NADPH and MnCl2 are included at final concentrations of 150 μM, 10 μM and 150 μM respectively. For IDH2 R140Q, α-ketoglutarate, NADPH and MnCl2 are included at final concentrations of 3000 μM, 10 μM and 100 μM respectively. Final pH=7.0. Test compound dissolved in DMSO stock is diluted in the reaction mix at a final DMSO concentration of 4%. Compounds are tested in dose-response format. The assay is started by addition of enzyme. Enzymes are used at the following final concentrations: IDH1 R132H, 2 nM; IDH1 R132C, 0.5 nM; IDH2 R172K, 1.2 nM; IDH2 R140Q, 1.2 nM. After 90 minutes the reaction is quenched by adding ACN (50:50) containing 3-hydroxy-1,5-pentanedioic-2,2,3,4,4-d5 acid (5d5-3HG) as an internal standard for mass spectrometry analysis and quantitation of reaction product. 2-Hydroxyglutarate (2HG) in quenched samples is separated using strong anionic exchange column chromatography (Phenomenex Strata-X-A SecurityGuard) and analyzed by mass spectrometry in a 6460 triple quadrupole mass spectrometer (G6460A Agilent). The 2HG signal detected is transformed into an analyte concentration using a calibration curve generated using known 2HG concentrations. […] IC50 values are obtained from the individual % inhibition values at different compound concentrations using a 4-parameter equation. These calculations are carried out using Activity Base (IDBS) or Screener (Genedata) data analysis programs.

IDH1/R132H = biological target: T2, IDH1/R132H (Homo sapiens, UniProt O75874, R132H); assay: Biochemical assay for IDH1 R132H mutant enzyme (2HG by RapidFire MS); conditions: mean ± standard deviation of the mean; 90 minutes reaction
T2 construct: His-tag (N); made in house; host or cells: E. coli
T2 sequence (O75874 whole entry R132H): as the sequence (O75874 whole entry R132C) above, with C132H counted along it
Description: as §1, §2

[1] = tested on: IDH1/R132H in U87MG glioma cells; assay: U87MG/IDH1R132H cell assay (intracellular 2HG); assay type: cell-based; conditions: Homo sapiens, U-87 MG, 19 h, 1 hour + 18 hours incubation, read-out: U87MG (IDH1/R132H 2-hydroxyglutarate IC50)
Description: (§3) To test the cellular inhibition of IDH1 mutant R132C, the fibrosarcoma cell line HT1080 (purchased from ATCC) is used. For testing cell-based inhibition of the R132H mutation, the U87MG glioma cell line (ATCC) was stably transfected with a DNA construct expressing the R132H mutant enzyme.
Cells are plated in poly-D-lys coated 96 well plates (12,000 cells/well) 18-24 hours previous to treatment with compounds. Four hours prior to compound treatment, cells are glutamine-starved by removing normal media and replacing with glutamine-free media. Following starvation, cells are then treated with different concentrations of test compounds (20 μM to 1 nM) dissolved in glutamine free media containing DMSO at a final concentration of 0.2%. The initial compound incubation is for 1 hour at 37° C./5% CO2. After 1 hour, glutamine is added to a final 2 mM concentration and the treated cells are then incubated for a further 18 hours at 37° C./5% CO2. Intracellular 2HG is analyzed in cell lysates obtained after media removal and treatment with lysis buffer (25 mM Tris-HCl pH 7.5, 150 mM NaCl, 1 mM EDTA, 1 mM EGTA/1% Triton-X 100). Cell lysates are conserved at −80° C. until processing. For analyte extraction, an aliquot of thawed lysate is transferred to a deep 96-well plate and treated with cold MeOH containing d5-3HG as an internal standard followed by chloroform and H2O (1:4:3:2). The upper phase is collected after separation and injected in HPLC to separate 2HG (and internal standard) using hydrophilic interaction (HILIC) chromatography coupled to MS/MS detection in a 6460 triple quadrupole mass spectrometer. Percent inhibition for each individual sample is obtained after normalizing calculated 2HG concentration to maximum and minimum references obtained in the presence and in the absence of glutamine during cell treatment with compounds. IC50 values are obtained from individual % inhibition using a sigmoidal dose-response 4-parameter equation. These calculations are carried out automatically using Activity Base (IDBS) or Screener (Genedata) data analysis programs.

[2] = tested on: IDH1 mutant R132C in fibrosarcoma cell line HT1080; assay: HT1080 cell assay (intracellular 2HG and αKG); assay type: cell-based; conditions: Homo sapiens, 1 hour + 18 hours incubation
Description: as §3
Fifteen thousand cells are plated in poly-D-lys coated 96 well plates (15,000 cells/well) 18-24 hours prior to treatment with compounds. Four hours prior to compound treatment, cells are glutamine-starved by removing normal media and replacing with glutamine-free media. Following starvation, cells are then treated with different concentrations of test compounds (20 μM to 1 nM) dissolved in glutamine free media containing DMSO at a final concentration of 0.2%. The initial compound incubation is for 1 hour at 37° C./5% CO2. After 1 hour, glutamine is added to a final 2 mM concentration and the treated cells are then incubated for a further 18 hours at 37° C./5% CO2. Following the 18 hour incubation, intracellular 2HG and αKG are analyzed in cell lysates. Lysates are prepared following removal of media and addition of buffer containing 25 mM Tris-HCl pH 7.5, 150 mM NaCl, 1 mM EDTA, 1 mM EGTA/1% Triton-X 100 to the cells. An aliquot of lysate is added to a mix of d6-αKG and d5-3HG as internal standards and the mixture is treated with O-benzylhydroxylamine in the presence of N-(3-dimethylaminopropyl)-N′-ethylcarbodiimide hydrochloride (EDC) and pyridine. Analyte derivatives are then extracted with EtOAc, dried, and then reconstituted with 50% MeOH in H2O. Samples prepared as described are injected into the HPLC to separate 2HG and αKG derivatives (and corresponding internal standards) using a reverse phase chromatography in a C18 column. Analysis of the samples is carried out using a 6460 triple quadrupole mass spectrometer (G6460A Agilent). The 2HG and αKG signals detected are transformed into analyte concentration using the ratio of αKG/d6-αKG and the ratio of 2HG/d5-3HG that is extrapolated within a calibration curve. Percent inhibition for each individual sample is obtained after normalizing calculated 2HG or aKG concentration to maximum and minimum references obtained in the presence and in the absence of glutamine during cell treatment with compounds. IC50 values are obtained from individual % inhibition using a sigmoidal dose-response 4-parameter equation. These calculations are carried out automatically using Activity Base (IDBS) or Screener (Genedata) data analysis programs.

[3] = HT-1080, 19 h, intracellular 2HG, read-out: HT1080 (R132C, 2-hydroxyglutarate) IC50
[4] = HT-1080, intracellular αKG, read-out: HT1080 (R132C, αKG) IC50

Structure (SMILES): C=CC(=O)N1CCN(c2ccc([C@H](C)Nc3ncc4c(n3)N(CC)C(=O)OC4)cc2)CC1 [Example 18, 1-Ethyl-7-[[(1S)-1-[4-(4-prop-2-enoylpiperazin-1-yl)phenyl]ethyl]amino]-4H-pyrimido[4,5-d][1,3]oxazin-2-one]
- IC50 (IDH1/R132C): 192 nM
- IC50 (IDH1/R132H): 211 nM
- IC50 [1]: 70.7 nM
- IC50 [2, 3]: 380 ± 130 nM
- IC50 [2, 4]: > 20000 nM

Structure (SMILES): C=CC(=O)N1CCN(Cc2ccc([C@H](C)Nc3ncc4c(n3)N(CC)C(=O)OC4)cc2)CC1 [Example 23, 1-Ethyl-7-[[(1S)-1-[4-[(4-prop-2-enoylpiperazin-1-yl)methyl]phenyl]ethyl]amino]-4H-pyrimido[4,5-d][1,3]oxazin-2-one 4-hydroxybenzoic acid salt]
- IC50 (IDH1/R132C): 234 ± 67 nM
- IC50 (IDH1/R132H): 188 ± 48 nM
- IC50 [1]: 9.03 ± 0.75 nM
- IC50 [2, 3]: 32.1 ± 13.6 nM
- IC50 [2, 4]: > 20000 nM
